Results reported in patent US12570988B2, “Aptamers that bind thiamine analogs and derivatives” (MeiraGTx Gene Regulation Limited, priority 2020, dated 2026).

What was measured:
riboswitch 15D10 [1] = assay: Luciferase reporter with 15D10 riboswitch (Luci-15D10) in HEK 293 cells; assay type: cell-based, human; settings: HEK 293 cells; for fold induction at 50 µM: Homo sapiens, HEK293, 24 h, read-out: Fold increase in riboswitch 15D10-regulated luciferase expression, HEK
Method: Transfection: 3.5×10^4 human embryonic kidney (HEK) 293 cells were plated in a 96-well flat bottom plate the day before transfection. Plasmid DNA (500 ng) was added to a tube or a 96-well U-bottom plate. […] Then, 50 μL of this diluted transfection reagent was added to the DNA, mixed, and incubated at RT for 20 min. Finally, 7 μL of this solution was added to a well of cells in the 96-well plate. Four hours after transfection, medium containing transfection solution was replaced by medium containing either TPP, fursultiamine, prosultiamine, bisbentiamine, beclotiamine hydrochloride, or sulbutiamine as aptamer inducers.
Firefly luciferase assay of cultured cells: Twenty-four hours after media change, plates were removed from the incubator, and equilibrated to RT for several minutes on a lab bench, then aspirated. Glo-lysis buffer (Promega, 100 μL, RT) was added, and the plates allowed to remain at RT for at least 5 minutes. Then, the well contents were mixed by 50 μL trituration, and 20 μL of each sample was mixed with 20 μL of bright-glo reagent (Promega) that had been diluted to 10% in glo-lysis buffer. 96 wells were spaced on an opaque white 384-well plate. Following a 5 min incubation at RT, luminescence was measured using a Tecan machine with 500 ms read time. The luciferase activity was expressed as mean arbitrary light units (ALU)±S.D., and fold induction was calculated as the quotient of the luciferase activity obtained from cells with TPP or analog treatment divided by the luciferase activity obtained from cells without TPP or analog treatment.

riboswitch 15D10 [2] = assay: Luciferase reporter with 15D10 riboswitch (Luci-15D10) in AML12 cells; assay type: cell-based, mouse; settings: for fold induction at 50 µM: Mus musculus, AML12, 24 h, AML12 cells, read-out: Fold increase in riboswitch 15D10-regulated luciferase expression, AML

SMILES	fold induction at 50 µM (riboswitch 15D10 [1]; Table 2)	fold induction at 50 µM (riboswitch 15D10 [2]; Table 2)	fold induction at 50 µM (riboswitch 15D10 [1]; Table 3)	fold induction at 50 µM (riboswitch 15D10 [2]; Table 3)	other results
C/C(=C(\CCO)SC(=O)c1ccc(Br)c2ccccc12)N(C=O)Cc1cnc(C)nc1N [Compound M39, (Z)—S-(2-(N-((4-amino-2-methylpyrimidin-5-yl)methyl)formamido)-5-hydroxypent-2-en-3-yl) 4-bromonaphthalene-1-carbothioate]	103	127			
C/C(=C(\CCO)SC(=O)c1ccccc1Oc1ccc(N2CCCC2=O)cc1)N(C=O)Cc1cnc(C)nc1N [Compound M155, (Z)—S-(2-(N-((4-amino-2-methylpyrimidin-5-yl)methyl)formamido)-5-hydroxypent-2-en-3-yl) 2-(4-(2-oxopyrrolidin-1-yl)phenoxy)benzothioate]			7.71	117	
C/C(=C(\CCO)SCOC(=O)C(C)C)N(C=O)Cc1cnc(C)nc1N [Compound M16, (Z)-((2-(N-((4-Amino-2-methylpyrimidin-5-yl)methyl)formamido)-5-hydroxypent-2-en-3-yl)thio)methyl isobutyrate]					effect on luciferase expression from Luci-15D10 (riboswitch 15D10 [1]; FIG. 9A, 9C): increased; relative potency in inducing luciferase expression (riboswitch 15D10 [2]; AML 12 cells, compared with fursultiamine or within groups): more potent than fursultiamine
C/C(=C(\CCO)SC(=O)/C=C/c1ccc2ccccc2c1)N(C=O)Cc1cnc(C)nc1N [Compound M88, S—((Z)-2-(N-((4-amino-2-methylpyrimidin-5-yl)methyl)formamido)-5-hydroxypent-2-en-3-yl) (E)-3-(naphthalen-2-yl)prop-2-enethioate]	216	355			
CCc1ccc(C(=O)S/C(CCO)=C(/C)N(C=O)Cc2cnc(C)nc2N)c2ccccc12 [Compound M110, (Z)—S-(2-(N-((4-amino-2-methylpyrimidin-5-yl)methyl)formamido)-5-hydroxypent-2-en-3-yl) 4-ethylnaphthalene-1-carbothioate]	65.7	146			
C/C(=C(\CCO)SC(=O)c1ccc(C(C)(C)C)cc1Oc1cccc(C(C)(C)C)c1)N(C=O)Cc1cnc(C)nc1N [Compound M156, (Z)—S-(2-(N-((4-amino-2-methylpyrimidin-5-yl)methyl)formamido)-5-hydroxypent-2-en-3-yl) 4-(tert-butyl)-2-(3-(tert-butyl)phenoxy)benzothioate]			0.06	10.1	
C/C(=C(\CCO)SC(=O)C(C)(C)c1ccc2ccccc2c1)N(C=O)Cc1cnc(C)nc1N [Compound M63, (Z)—S-(2-(N-((4-amino-2-methylpyrimidin-5-yl)methyl)formamido)-5-hydroxypent-2-en-3-yl) 2-methyl-2-(naphthalen-2-yl)propanethioate]	1.7	19			
C/C(=C(\CCO)SC(=O)c1ccc2oc3ccccc3c2c1)N(C=O)Cc1cnc(C)nc1N [Compound M76, (Z)—S-(2-(N-((4-amino-2-methylpyrimidin-5-yl)methyl)formamido)-5-hydroxypent-2-en-3-yl) dibenzo[b,d]furan-2-carbothioate]	60.7	134			
C/C(=C(\CCO)SC(=O)c1ccc2ccccc2c1)N(C=O)Cc1cnc(C)nc1N [Compound M49, (Z)—S-(2-(N-((4-amino-2-methylpyrimidin-5-yl)methyl)formamido)-5-hydroxypent-2-en-3-yl) naphthalene-2-carbothioate]	414	202			
C/C(=C(\CCO)SC(=O)c1ccccc1Oc1ccc(C(F)(F)F)nc1)N(C=O)Cc1cnc(C)nc1N [Compound M146, (Z)—S-(2-(N-((4-amino-2-methylpyrimidin-5-yl)methyl)formamido)-5-hydroxypent-2-en-3-yl) 2-((6-(trifluoromethyl)pyridin-3-yl)oxy)benzothioate]			53.3	96.6	
C/C(=C(\CCO)SC(=O)C(C)(C)Cc1ccccc1)N(C=O)Cc1cnc(C)nc1N [Compound M55, (Z)—S-(2-(N-((4-amino-2-methylpyrimidin-5-yl)methyl)formamido)-5-hydroxypent-2-en-3-yl) 2,2-dimethyl-3-phenylpropanethioate]	2.1	9			
C/C(=C(\CCO)SC(=O)c1ccccc1Oc1cccc(C#N)c1)N(C=O)Cc1cnc(C)nc1N [Compound M135, (Z)—S-(2-(N-((4-amino-2-methylpyrimidin-5-yl)methyl)formamido)-5-hydroxypent-2-en-3-yl) 2-(3-cyanophenoxy)benzothioate]			87.5	44.5	
C/C(=C(\CCO)SC(=O)C(C)c1ccccc1)N(C=O)Cc1cnc(C)nc1N (stereo not drawn) [Compound M54, (Z)—S-(2-(N-((4-amino-2-methylpyrimidin-5-yl)methyl)formamido)-5-hydroxypent-2-en-3-yl) 2-phenylpropanethioate]	3	13.9			
C/C(=C(\CCO)SC(=O)c1cc(Cl)ccc1Oc1ccccc1Cl)N(C=O)Cc1cnc(C)nc1N [Compound M158, (Z)—S-(2-(N-((4-amino-2-methylpyrimidin-5-yl)methyl)formamido)-5-hydroxypent-2-en-3-yl) 5-chloro-2-(2-chlorophenoxy)benzothioate]			96.9	235	
C/C(=C(\CCO)SC(=O)c1c(F)cccc1OCc1ccccc1)N(C=O)Cc1cnc(C)nc1N [Compound M129, (Z)—S-(2-(N-((4-amino-2-methylpyrimidin-5-yl)methyl)formamido)-5-hydroxypent-2-en-3-yl) 2-(benzyloxy)-6-fluorobenzothioate]			10.9	167	
C/C(=C(\CCO)SCOC(=O)C(C)(C)c1ccc2ccccc2c1)N(C=O)Cc1cnc(C)nc1N [Compound M107, (Z)-((2-(N-((4-amino-2-methylpyrimidin-5-yl)methyl)formamido)-5-hydroxypent-2-en-3-yl)thio)methyl 2-methyl-2-(naphthalen-2-yl)propanoate]	26	40.2			
C/C(=C(\CCO)SC(=O)c1ccccc1Oc1cccc2cccnc12)N(C=O)Cc1cnc(C)nc1N [Compound M141, (Z)—S-(2-(N-((4-amino-2-methylpyrimidin-5-yl)methyl)formamido)-5-hydroxypent-2-en-3-yl) 2-(quinolin-8-yloxy)benzothioate]			1.61	3.46	
C/C(=C(\CCO)SC(=O)c1cc(C(C)(C)C)cc(C(C)(C)C)c1)N(C=O)Cc1cnc(C)nc1N [Compound M70, (Z)—S-(2-(N-((4-amino-2-methylpyrimidin-5-yl)methyl)formamido)-5-hydroxypent-2-en-3-yl) 3,5-di-tert-butylbenzothioate]	51	236			
C/C(=C(\CCO)SC(=O)c1ccc(C(C)(C)C)cc1Oc1ccccc1)N(C=O)Cc1cnc(C)nc1N [Compound M145, (Z)—S-(2-(N-((4-amino-2-methylpyrimidin-5-yl)methyl)formamido)-5-hydroxypent-2-en-3-yl) 4-(tert-butyl)-2-phenoxybenzothioate]			156	60.6	
C/C(=C(\CCO)SC(=O)c1ccccc1Oc1ccccc1)N(C=O)Cc1cnc(C)nc1N [Compound M113, (Z)—S-(2-(N-((4-amino-2-methylpyrimidin-5-yl)methyl)formamido)-5-hydroxypent-2-en-3-yl) 2-phenoxybenzothioate]	213	272	265	348	
C/C(=C(\CCO)SC(=O)c1ccccc1Oc1ccccc1Cl)N(C=O)Cc1cnc(C)nc1N [Compound M136, (Z)—S-(2-(N-((4-amino-2-methylpyrimidin-5-yl)methyl)formamido)-5-hydroxypent-2-en-3-yl) 2-(2-chlorophenoxy)benzothioate]			132	263	
C/C(=C(\CCO)SC(=O)c1cc(Cl)ccc1Oc1ccc(F)cc1)N(C=O)Cc1cnc(C)nc1N [Compound M134, (Z)—S-(2-(N-((4-amino-2-methylpyrimidin-5-yl)methyl)formamido)-5-hydroxypent-2-en-3-yl) 5-chloro-2-(4-fluorophenoxy)benzothioate]			557	408	
C/C(=C(\CCO)SC(=O)c1ccccc1Oc1cccc(C(C)(C)C)c1)N(C=O)Cc1cnc(C)nc1N [Compound M139, (Z)—S-(2-(N-((4-amino-2-methylpyrimidin-5-yl)methyl)formamido)-5-hydroxypent-2-en-3-yl) 2-(3-(tert-butyl)phenoxy)benzothioate]			37	188	
